Reference: patent US9981964B2 (Agency for Science, Technology and Research, priority 2013, dated 2018)

system: HEK293-STF3A cells; test: STF3A assay (STF luciferase reporter in Wnt3A-expressing HEK293 cells); assay type: cell-based; conditions: Homo sapiens, 24 h, 1 day of treatment
Procedure, shortened: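 HEK293 cells carrying the STF reporter and expressing Wnt3A, seeded 2×10^4 per well overnight, then treated 1 day with compound at final 50 μM to 1.5 nM. Luciferase activity read by luminescence after Steady-Glo reagent, 10 min at room temperature.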

Compound	IC50
Cc1nc(NC(=O)CN2CCCC3=C2C(=O)N(C2CC2)C3=O)ccc1-c1cccnc1 [Compound 125, 2-(6-cyclopropyl-5,7-dioxo-2,3,4,5,6,7-hexahydro-1H-pyrrolo[3,4-b]pyridin-1-yl)-N-(2-methyl-[3,3′-bipyridin]-6-yl)acetamide]	< 1000 nM
O=C(CN1CCCC2=C1C(=O)N(C1CC1)C2=O)Nc1ccc(-c2ccc(F)cn2)cn1 [Compound 127, 2-(6-cyclopropyl-5,7-dioxo-2,3,4,5,6,7-hexahydro-1H-pyrrolo[3,4-b]pyridin-1-yl)-N-(5-fluoro-[2,3′-bipyridin]-6′-yl)acetamide]	< 100 nM
Cc1cncc(-c2ccc(NC(=O)CN3CCCC4=C3C(=O)N(C3CC3)C4=O)nc2)n1 [Compound 128, 2-(6-cyclopropyl-5,7-dioxo-2,3,4,5,6,7-hexahydro-1H-pyrrolo[3,4-b]pyridin-1-yl)-N-(5-(6-methylpyrazin-2-yl)pyridin-2-yl)acetamide]	< 100 nM
Cc1cncc(-c2ccc(NC(=O)CN3CCCC4=C3C(=O)N(C)C4=O)nc2)n1 [Compound 129, 2-(6-methyl-5,7-dioxo-2,3,4,5,6,7-hexahydro-1H-pyrrolo[3,4-b]pyridin-1-yl)-N-(5-(6-methylpyrazin-2-yl)pyridin-2-yl)acetamide]	< 100 nM
COc1ccc(-c2ccc(NC(=O)CN3CCCC4=C3C(=O)N(C3CC3)C4=O)nc2)nc1 [Compound 130, 2-(6-cyclopropyl-5,7-dioxo-2,3,4,5,6,7-hexahydro-1H-pyrrolo[3,4-b]pyridin-1-yl)-N-(5-methoxy-[2,3′-bipyridin]-6′-yl)acetamide]	< 100 nM
Cc1cccc(-c2ccc(NC(=O)CN3CCCC4=C3C(=O)N(C)C4=O)cn2)c1 [Compound 131, 2-(6-methyl-5,7-dioxo-2,3,4,5,6,7-hexahydro-1H-pyrrolo[3,4-b]pyridin-1-yl)-N-(6-(m-tolyl)pyridin-3-yl)acetamide]	< 100 nM
Cc1cnc(-c2ccc(NC(=O)CN3CCCC4=C3C(=O)N(C)C4=O)nc2)cn1 [Compound 132, 2-(6-methyl-5,7-dioxo-2,3,4,5,6,7-hexahydro-1H-pyrrolo[3,4-b]pyridin-1-yl)-N-(5-(5-methylpyrazin-2-yl)pyridin-2-yl)acetamide]	< 100 nM
Cc1cc(NC(=O)CN2CCCC3=C2C(=O)N(C2CC2)C3=O)cnc1-c1cccnc1 [Compound 133, 2-(6-cyclopropyl-5,7-dioxo-2,3,4,5,6,7-hexahydro-1H-pyrrolo[3,4-b]pyridin-1-yl)-N-(3-methyl-2,3′-bipyridin-5-yl)acetamide]	< 1000 nM
Cc1ncccc1-c1ccc(NC(=O)CN2CCCC3=C2C(=O)N(C)C3=O)nn1 [Compound 134, 2-(6-methyl-5,7-dioxo-2,3,4,5,6,7-hexahydro-1H-pyrrolo[3,4-b]pyridin-1-yl)-N-(6-(2-methylpyridin-3-yl)pyridazin-3-yl)acetamide]	< 5000 nM
O=C(CN1CCCC2=C1C(=O)N(C1CC1)C2=O)Nc1ccc(-c2cccnc2F)nc1 [Compound 135, 2-(6-cyclopropyl-5,7-dioxo-2,3,4,5,6,7-hexahydro-1H-pyrrolo[3,4-b]pyridin-1-yl)-N-(2′-fluoro-2,3′-bipyridin-5-yl)acetamide]	< 100 nM
O=C(CN1CCCC2=C1C(=O)N(C1CC1)C2=O)Nc1ccc(-c2cccnc2)nc1F [Compound 137]	< 100 nM
Cc1ccncc1-c1ccc(NC(=O)CN2CCCC3=C2C(=O)N(C2CC2)C3=O)cn1 [Compound 138, 2-(6-cyclopropyl-5,7-dioxo-2,3,4,5,6,7-hexahydro-1H-pyrrolo[3,4-b]pyridin-1-yl)-N-(4′-methyl-2,3′-bipyridin-5-yl)acetamide]	< 1000 nM
CC(C(=O)Nc1ccc(-c2cncc(F)c2)cn1)N1CCCC2=C1C(=O)N(C)C2=O (stereo not drawn) [Compound 139, N-(5′-fluoro-3,3′-bipyridin-6-yl)-2-(6-methyl-5,7-dioxo-2,3,4,5,6,7-hexahydro-1H-pyrrolo[3,4-b]pyridin-1-yl)propanamide]	< 100 nM
Cc1cc(-c2cccnc2)ncc1NC(=O)CN1CCCC2=C1C(=O)N(C1CC1)C2=O [Compound 140, 2-(6-cyclopropyl-5,7-dioxo-2,3,4,5,6,7-hexahydro-1H-pyrrolo[3,4-b]pyridin-1-yl)-N-(4-methyl-2,3′-bipyridin-5-yl)acetamide]	< 10000 nM
CN1C(=O)C2=C(C1=O)N(CC(=O)Nc1cnc(-c3cncc(F)c3)cn1)CCC2 [Compound 141, N-(5-(5-fluoropyridin-3-yl)pyrazin-2-yl)-2-(6-methyl-5,7-dioxo-2,3,4,5,6,7-hexahydro-1H-pyrrolo[3,4-b]pyridin-1-yl)acetamide]	< 100 nM
O=C(CN1CCCC2=C1C(=O)N(C1CC1)C2=O)Nc1cnc(-c2cncc(F)c2)cn1 [Compound 142, 2-(6-cyclopropyl-5,7-dioxo-2,3,4,5,6,7-hexahydro-1H-pyrrolo[3,4-b]pyridin-1-yl)-N-(5-(5-fluoropyridin-3-yl)pyrazin-2-yl)acetamide]	< 100 nM
CN1C(=O)C2=C(C1=O)N(CC(=O)Nc1ccc(-c3cncc(F)c3)cn1)CCC2 [Compound 143, N-(5′-fluoro-3,3′-bipyridin-6-yl)-2-(6-methyl-5,7-dioxo-2,3,4,5,6,7-hexahydro-1H-pyrrolo[3,4-b]pyridin-1-yl)acetamide]	< 100 nM
COc1cncc(-c2ccc(NC(=O)CN3CCCC4=C3C(=O)N(C3CC3)C4=O)cn2)c1 [Compound 144, 2-(6-cyclopropyl-5,7-dioxo-2,3,4,5,6,7-hexahydro-1H-pyrrolo[3,4-b]pyridin-1-yl)-N-(5′-methoxy-2,3′-bipyridin-5-yl)acetamide]	< 100 nM
COc1ccc(-c2ccc(NC(=O)CN3CCCC4=C3C(=O)N(C3CC3)C4=O)cn2)cn1 [Compound 145, 2-(6-cyclopropyl-5,7-dioxo-2,3,4,5,6,7-hexahydro-1H-pyrrolo[3,4-b]pyridin-1-yl)-N-(6′-methoxy-2,3′-bipyridin-5-yl)acetamide]	< 100 nM
Cc1ccc(-c2ccc(NC(=O)CN3CCCC4=C3C(=O)N(C3CC3)C4=O)nc2)nc1 [Compound 146, 2-(6-cyclopropyl-5,7-dioxo-2,3,4,5,6,7-hexahydro-1H-pyrrolo[3,4-b]pyridin-1-yl)-N-(5-methyl-2,3′-bipyridin-6′-yl)acetamide]	< 1000 nM
COc1cncc(-c2ccc(NC(=O)CN3CCCC4=C3C(=O)N(C3CC3)C4=O)nc2)c1 [Compound 147, 2-(6-cyclopropyl-5,7-dioxo-2,3,4,5,6,7-hexahydro-1H-pyrrolo[3,4-b]pyridin-1-yl)-N-(5′-methoxy-3,3′-bipyridin-6-yl)acetamide]	< 100 nM
Cc1cncc(-c2ccc(NC(=O)CN3CCCC4=C3C(=O)N(C)C4=O)nc2)c1 [Compound 148, 2-(6-methyl-5,7-dioxo-2,3,4,5,6,7-hexahydro-1H-pyrrolo[3,4-b]pyridin-1-yl)-N-(5′-methyl-[3,3′-bipyridin]-6-yl)acetamide]	< 100 nM
Cc1cncc(-c2ccc(NC(=O)CN3CCCC4=C3C(=O)N(C)C4=O)cn2)c1 [Compound 149, 2-(6-methyl-5,7-dioxo-2,3,4,5,6,7-hexahydro-1H-pyrrolo[3,4-b]pyridin-1-yl)-N-(5′-methyl-[2,3′-bipyridin]-5-yl)acetamide]	< 100 nM
Cc1ccnc(-c2ccc(NC(=O)CN3CCCC4=C3C(=O)N(C3CC3)C4=O)nc2)c1 [Compound 150, 2-(6-cyclopropyl-5,7-dioxo-2,3,4,5,6,7-hexahydro-1H-pyrrolo[3,4-b]pyridin-1-yl)-N-(4-methyl-[2,3′-bipyridin]-6′-yl)acetamide]	< 100 nM
